Experimental data as given in patent US10646488B2 (Araxes Pharma LLC, priority 2016, dated 2020).

Biological target: T1, KRAS G12C 1-169, his-tagged protein, GDP-loaded (Homo sapiens, UniProt P01116, G12C)
T1 construct: KRAS G12C 1-169, his-tagged protein, GDP-loaded
Assay: Covalent binding (% modification) to KRAS G12C by mass spectrometry; also: test concentration or dose not given here

[1] = covalent binding to KRAS G12C after a three minute incubation period
[2] = covalent binding to KRAS G12C after a ten minute incubation period

| SMILES | Binding % [1] | Binding % [2] |
| --- | --- | --- |
| C=CC(=O)N1C[C@H](C)N(c2nc(N3CC(N(C)C(C)C)C3)nc3c(F)c(-c4c(O)cccc4F)c(Cl)cc23)C[C@H]1C [Compound 99, 1-((2R,5S)-4-(6-chloro-8-fluoro-7-(2-fluoro-6-hydroxyphenyl)-2-(3-(isopropyl (methyl)amino)azetidin-1-yl)quinazolin-4-yl)-2,5-dimethyl-piperazin-1-yl) prop-2-en-1-one] | ++ (++ indicates binding activity from 50 to 90%) | – |
| C=CC(=O)N1C[C@H](C)N(c2nc(OCCN(CC)CC)nc3c(F)c(-c4c(O)cccc4F)c(Cl)cc23)C[C@H]1C (atropisomer, axis not shown) [Compound 75, 1-((2R,5S)-4-((S)-6-chloro-2-(2-(diethylamino)ethoxy)-8-fluoro-7-(2-fluoro-6-hydroxyphenyl)quinazolin-4-yl)-2,5-dimethyl-piperazin-1-yl) prop-2-en-1-one] | – | +++ (+++ indicates binding activity greater than 90%) |
| C=CC(=O)N1C[C@H](C)N(c2nc(N3CC(N)C3)nc3c(F)c(-c4c(C)ccc5cn[nH]c45)c(Cl)cc23)C[C@H]1C [Compound 97, 1-((2R,5S)-4-(2-(3-aminoazetidin-1-yl)-6-chloro-8-fluoro-7-(6-methyl-1H-indazol-7-yl)quinazolin-4-yl)-2,5-dimethyl-piperazin-1-yl) prop-2-en-1-one] | ++ (++ indicates binding activity from 50 to 90%) | – |
| C=CC(=O)N1C[C@@H](C)N(c2nc(OCCN3CC(F)(F)C3)nc3c(F)c(-c4c(O)cccc4F)c(Cl)cc23)[C@@H](C)C1 [Compound 22, 1-((3S,5R)-4-(6-chloro-2-(2-(3,3-difluoroazetidin-1-yl)ethoxy)-8-fluoro-7-(2-fluoro-6-hydroxyphenyl)quinazolin-4-yl)-3,5-dimethyl-piperazin-1-yl) prop-2-en-1-one] | – | ++ (++ indicates binding activity from 50 to 90%) |
| C=CC(=O)N1C[C@H](C)N(c2nc(N3CC(N(C)C4CCC4)C3)nc3c(F)c(-c4c(C)ccc5cn[nH]c45)c(Cl)cc23)C[C@H]1C [Compound 144, 1-((2R,5S)-4-(6-chloro-2-(3-(cyclobutyl (methyl)amino)azetidin-1-yl)-8-fluoro-7-(6-methyl-1H-indazol-7-yl)quinazolin-4-yl)-2,5-dimethyl-piperazin-1-yl) prop-2-en-1-one] | +++ (+++ indicates binding activity greater than 90%) | – |
| C=CC(=O)N1C[C@H](C)N(c2nc(N3CC(N(CC)CC)C3)nc3c(F)c(-c4c(C)ccc5cn[nH]c45)c(Cl)cc23)C[C@H]1C [Compound 129, 1-((2R,5S)-4-(6-chloro-2-(3-(diethylamino)azetidin-1-yl)-8-fluoro-7-(6-methyl-1H-indazol-7-yl)quinazolin-4-yl)-2,5-dimethyl-piperazin-1-yl) prop-2-en-1-one] | ++ (++ indicates binding activity from 50 to 90%) | – |
| C=CC(=O)N1C[C@H](C)N(c2nc(OCCCN(C)C)nc3c(F)c(-c4c(C)ccc5[nH]ncc45)c(Cl)cc23)C[C@H]1C [Compound 199, 1-((2R,5S)-4-(6-chloro-2-(3-(dimethylamino)propoxy)-8-fluoro-7-(5-methyl-1H-indazol-4-yl)quinazolin-4-yl)-2,5-dimethyl-piperazin-1-yl) prop-2-en-1-one] | ++ (++ indicates binding activity from 50 to 90%) | – |
| C=CC(=O)N1C[C@H](C)N(c2nc(N3CC(N(C)CC)C3)nc3c(F)c(-c4c(O)cccc4F)c(Cl)cc23)C[C@H]1C [Compound 98, 1-((2R,5S)-4-(6-chloro-2-(3-(ethyl(methyl)amino)azetidin-1-yl)-8-fluoro-7-(2-fluoro-6-hydroxyphenyl)quinazolin-4-yl)-2,5-dimethyl-piperazin-1-yl) prop-2-en-1-one] | ++ (++ indicates binding activity from 50 to 90%) | – |
| C=CC(=O)N1C[C@@H](C)N(c2nc(N)nc3c(F)c(-c4c(O)cccc4F)c(Cl)cc23)[C@@H](C)C1 [Compound 17, 1-((3S,5R)-4-(2-amino-6-chloro-8-fluoro-7-(2-fluoro-6-hydroxyphenyl)quinazolin-4-yl)-3,5-dimethylpiperazin-1-yl)prop-2-en-1-one] | – | ++ (++ indicates binding activity from 50 to 90%) |
| C=CC(=O)N1CCN(c2nc(N)nc3c(F)c(-c4cc(O)cc5ccccc45)c(Cl)cc23)[C@@H](C)C1 [Compound 12, 1-((3 S)-4-(2-Amino-6-Chloro-8-Fluoro-7-(3-Hydroxynaphthalen-1-Yl)Quinazolin-4-Yl)-3-Methylpiperazin-1-Yl)Prop-2-En-1-One] | – | +++ (+++ indicates binding activity greater than 90%) |
| C=CC(=O)N1CCN(c2nc(N3CC(N(C)C)C3)nc3c(F)c(-c4c(O)cccc4F)c(Cl)cc23)[C@@H](C)C1 (atropisomer, axis not shown) [Compound 58, 1-((S)-4-((S)-6-chloro-2-(3-(dimethylamino)azetidin-1-yl)-8-fluoro-7-(2-fluoro-6-hydroxyphenyl)quinazolin-4-yl)-3-methyl-piperazin-1-yl) prop-2-en-1-one] | – | +++ (+++ indicates binding activity greater than 90%) |
| [2H]C([2H])([2H])N(C1CN(c2nc(N3C[C@@H](C)N(C(=O)C=C)C[C@@H]3C)c3cc(Cl)c(-c4c(C)ccc5[nH]ncc45)c(F)c3n2)C1)C([2H])([2H])[2H] (atropisomer, axis not shown) [Compound 227, 1-((2R,5S)-4-(6-chloro-2-(3-(bis(triduetero-methyl)amino)azetidin-1-yl)-8-fluoro-7-((S)-5-methyl-1H-indazol-4-yl)quinazolin-4-yl)-2,5-dimethyl-piperazin-1-yl) prop-2-en-1-one] | + (+ indicates binding activity greater than 0% and up to 50%) | – |
| C=CC(=O)N1CCN(c2nc(N3CC(N(CC)CC)C3)nc3c(F)c(-c4c(C)ccc5[nH]ncc45)c(Cl)cc23)[C@@H](C)C1 [Compound 167, 1-((3S)-4-(6-chloro-2-(3-(diethylamino)azetidin-1-yl)-8-fluoro-7-(5-methyl-1H-indazol-4-yl)quinazolin-4-yl)-3-methyl-piperazin-1-yl) prop-2-en-1-one] | +++ (+++ indicates binding activity greater than 90%) | – |
| C=CC(=O)N1C[C@H](C)N(c2nc(N3CC(N(CC)CC)C3)nc3c(F)c(-c4c(O)cccc4F)c(Cl)cc23)C[C@H]1C (atropisomer, axis not shown) [Compound 175, 1-((2R,5S)-4-(6-chloro-2-(3-(diethylamino)azetidin-1-yl)-8-fluoro-7-((S)-2-fluoro-6-hydroxyphenyl)quinazolin-4-yl)-2,5-dimethyl-piperazin-1-yl) prop-2-en-1-one] | +++ (+++ indicates binding activity greater than 90%) | – |
| C=CC(=O)N1CCN(c2nc(CN(C)Cc3ncccn3)nc3c(F)c(-c4c(O)cccc4F)c(Cl)cc23)C[C@H]1C [Compound 91, 1-((2R)-4-(6-chloro-8-fluoro-7-(2-fluoro-6-hydroxyphenyl)-2-((methyl (pyrimidin-2-yl-methyl)amino)methyl)quinazolin-4-yl)-2-methyl-piperazin-1-yl) prop-2-en-1-one] | + (+ indicates binding activity greater than 0% and up to 50%) | – |
| C=CC(=O)N1C[C@H](C)N(c2nc(N3CC(N(C)CC)C3)nc3c(F)c(-c4c(C)ccc5cn[nH]c45)c(Cl)cc23)C[C@H]1C [Compound 118, 1-((2R,5S)-4-(6-chloro-2-(3-(ethyl(methyl)amino)azetidin-1-yl)-8-fluoro-7-(6-methyl-1H-indazol-7-yl)quinazolin-4-yl)-2,5-dimethyl-piperazin-1-yl) prop-2-en-1-one] | + (+ indicates binding activity greater than 0% and up to 50%) | – |
| C=CC(=O)N1C[C@H](C)N(c2nc(N3CC(N(C)C)C3)nc3c(F)c(-c4c(F)cccc4B4OC(C)(C)C(C)(C)O4)c(Cl)cc23)C[C@H]1C [Compound 185, 1-((2R,5S)-4-(6-chloro-2-(3-(dimethylamino)azetidin-1-yl)-8-fluoro-7-(2-fluoro-6-(4,4,5,5-tetramethyl-1,3,2-dioxaborolan-2-yl)phenyl)quinazolin-4-yl)-2,5-dimethyl-piperazin-1-yl) prop-2-en-1-one] | + (+ indicates binding activity greater than 0% and up to 50%) | – |
| C=CC(=O)N1C[C@H](C)N(c2nc(N3CC(N(C)CC)C3)nc3c(F)c(-c4c(O)cccc4F)c(Cl)cc23)C[C@H]1C [Compound 102, 1-((2R,5S)-4-(6-chloro-2-(3-(ethyl(methyl)amino)azetidin-1-yl)-8-fluoro-7-(2-fluoro-6-hydroxyphenyl)quinazolin-4-yl)-2,5-dimethyl-piperazin-1-yl) prop-2-en-1-one] | ++ (++ indicates binding activity from 50 to 90%) | – |
| C=CC(=O)N1C[C@H](C)N(c2nc(OCCCN(C)C)nc3c(F)c(-c4c(O)ccc5ccccc45)c(Cl)cc23)C[C@H]1C [Compound 224, 1-((2R,5S)-4-(6-chloro-2-(3-(dimethylamino)propoxy)-8-fluoro-7-(2-hydroxy-naphthalen-1-yl)quinazolin-4-yl)-2,5-dimethyl-piperazin-1-yl) prop-2-en-1-one] | ++ (++ indicates binding activity from 50 to 90%) | – |
| C=CC(=O)N1C[C@H](C)N(c2nc(N3CC(N(C)C4CC4)C3)nc3c(F)c(-c4c(C)ccc5cn[nH]c45)c(Cl)cc23)C[C@H]1C [Compound 133, 1-((2R,5S)-4-(6-chloro-2-(3-(cyclopropyl (methyl)amino)azetidin-1-yl)-8-fluoro-7-(6-methyl-1H-indazol-7-yl)quinazolin-4-yl)-2,5-dimethyl-piperazin-1-yl) prop-2-en-1-one] | ++ (++ indicates binding activity from 50 to 90%) | – |
| C=CC(=O)N1[C@H](C)CN(c2nc(N)nc3c(F)c(-c4cc(O)cc5ccccc45)c(Cl)cc23)C[C@@H]1C [Compound 7, 1-((2S,6R)-4-(2-amino-6-chloro-8-fluoro-7-(3-hydroxynaphthalen-1-yl)quinazolin-4-yl)-2,6-dimethyl-piperazin-1-yl) prop-2-en-1-one] | – | ++ (++ indicates binding activity from 50 to 90%) |
